Results from patent US20220401564A1 (DANA-FARBER CANCER INSTITUTE, INC., priority 2019, published 2022).
“Also recorded” adds a separate entry of the source.

How the values were obtained:
VHL = biological target: T1, VHL (Homo sapiens, UniProt P40337); test: Cellular VHL engagement assay (BRD4BD2-GFP / mCherry reporter cells); type: cell-based; conditions: with 250 nM AT1, 5 h
T1 construct: Cells stably expressing the BRD4BD2-GFP with mCherry reporter (40) were seeded; endogenous in cells
Experimental: Cells stably expressing the BRD4BD2-GFP with mCherry reporter (40) were seeded at 30-50% confluency in 384-well plates with 50 μL per well of FluoroBrite™ DMEM media (Thermo Fisher Scientific, A18967) supplemented with 10% FBS a day before compound treatment. Compounds and 250 nM AT1((2S,4R)-1-(2R)-2-Acetamido-3-[[6-[2-[(6S)-4-(4-chlorophenyl)-2,3,9-trimethyl-6H-thieno[3,2-f][1,2,4]triazolo[4,3-a][1,4]diazepin-6-yl]acetamido]hexyl]thio]-3-methylbutanoyl]-4-hydroxy-N-[4-(4-methylthiazol-5-yl)benzyl)pyrrolidinine-2-carboxamide) were dispensed using a D300e Digital Dispenser (HP), normalized to 0.5% DMSO, and incubated with the cells for 5 h. The assay plate was imaged immediately using an Acumen® High Content Imager (TTP Labtech) with 488 nm and 561 nm lasers in a […] grid per well format. The resulting images were analyzed using CellProfiler™.
A series of image analysis steps (an ‘image analysis pipeline’) was constructed. First, the red and green channels were aligned and cropped to target the middle of each well (to avoid analysis of the heavily clumped cells at the edges). A background illumination function was calculated for both red and green channels of each well individually and subtracted to correct for illumination variations across the 384-well plate from various sources of error. An additional step was then applied to the green channel to suppress the analysis of large auto fluorescent artifacts and enhance the analysis of cell specific fluorescence by way of selecting for objects under a given size (30 A.U.) and with a given shape (speckles). mCherry-positive cells were then identified in the red channel by filtering for objects 8-60 pixels in diameter and by using intensity to distinguish between clumped objects. The green channel was then segmented into GFP positive and negative areas and objects were labeled as GFP positive if at least 40% of it overlapped with a GFP positive area. The fraction of GFP-positive cells/mCherry-positive cells in each well was then calculated, and the green and red images were rescaled for visualization.

HDAC3 = HDAC3 (Homo sapiens, UniProt O15379); test: Change in cellular protein abundance (TMT proteomics) in Kelly cells; type: cell-based; set-up: relative change in relative protein abundance with treatment of Kelly cells; endogenous in cells; host or cells: Kelly cells; conditions: for HDAC3 protein levels, relative protein abundance compared to DMSO control: scatter plots FIG. 1 and FIG. 3
HDAC3, sequence (O15379 whole entry): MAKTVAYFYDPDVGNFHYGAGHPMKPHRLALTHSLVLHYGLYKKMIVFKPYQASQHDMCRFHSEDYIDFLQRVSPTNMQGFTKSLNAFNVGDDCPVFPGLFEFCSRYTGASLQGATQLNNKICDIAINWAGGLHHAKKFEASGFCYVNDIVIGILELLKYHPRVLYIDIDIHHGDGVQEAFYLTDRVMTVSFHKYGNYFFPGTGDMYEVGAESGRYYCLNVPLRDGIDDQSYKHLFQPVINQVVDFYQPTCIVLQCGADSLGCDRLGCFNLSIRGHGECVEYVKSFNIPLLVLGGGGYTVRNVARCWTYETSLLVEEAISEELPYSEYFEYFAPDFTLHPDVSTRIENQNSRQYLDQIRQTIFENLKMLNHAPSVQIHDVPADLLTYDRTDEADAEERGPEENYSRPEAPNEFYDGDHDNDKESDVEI
Experimental: Lysis buffer (8 M Urea, 50 mM NaCl, 50 mM 4-(2hydroxyethyl)-1-piperazineethanesulfonic acid (EPPS) pH 8.5, protease and phosphatase inhibitors from Roche®) were added to the cell pellets and homogenized by 20 passes through a 21 gauge (1.25 in. long) needle to achieve a cell lysate with a protein concentration between 1-4 mg mL-1. A micro-BCA assay (Pierce™) was used to determine the final protein concentration in the cell lysate. 200 μg of protein for each sample were reduced and alkylated as described in Donovan et al., Elife 7:e38430 (2018).
Proteins were precipitated using methanol/chloroform. Four volumes of methanol were added to the cell lysate, followed by one volume of chloroform, and finally three volumes of water. The mixture was vortexed and centrifuged to separate the chloroform phase from the aqueous phase. The precipitated protein was washed with three volumes of methanol, centrifuged and the resulting washed precipitated protein was allowed to air dry. The precipitated protein was resuspended in 4 M Urea, 50 mM HEPES pH 7.4, followed by dilution to 1 M urea with the addition of 200 mM EPPS, pH 8. Proteins were first digested with LysC (1:50; enzyme:protein) for 12 hours at room temperature. The LysC digestion was diluted to 0.5 M Urea with 200 mM EPPS pH 8 followed by digestion with trypsin (1:50; enzyme:protein) for 6 hours at 37° C. Tandem mass tag (TMT) reagents (Thermo Fisher Scientific) were dissolved in anhydrous acetonitrile (ACN) according to manufacturer's instructions.
Anhydrous ACN was added to each peptide sample to a final concentration of 30% v/v, and labeling was induced with the addition of TMT reagent to each sample at a ratio of 1:4 peptide:TMT label. The 10-plex labeling reactions were performed for 1.5 hours at room temperature and the reaction quenched by the addition of hydroxylamine to a final concentration of 0.3% for 15 minutes at room temperature. The sample channels were combined at a 1:1:1:1:1:1:1:1:1:1:1 ratio, desalted using Cis solid phase extraction cartridges (Waters®) and analyzed by LC-MS for channel ratio comparison. Samples were then combined using the adjusted volumes determined in the channel ratio analysis and dried down in a speed vacuum. The combined sample was then resuspended in 1% formic acid, and acidified (pH 2-3) before being subjected to desalting with C18 SPE (Sep-Pak®, Waters®). Samples were then offline fractionated into 96 fractions by high pH reverse-phase HPLC (Agilent® LC1260) through an aeris peptide xb-c18 column (Phenomenex®) with mobile phase A containing 5% acetonitrile and 10 mM NH4HCO3 in LC-MS grade H2O, and mobile phase B containing 90% acetonitrile and 10 mM NH4HCO3 in LC-MS grade H2O (both pH 8.0). The 96 resulting fractions were then pooled in a non-continuous manner into 24 fractions and these fractions were used for subsequent mass spectrometry analysis.
Data were collected using an Orbitrap Fusion™ Lumos™ mass spectrometer (Thermo Fisher Scientific, San Jose, Calif., USA) coupled with a Proxeon EASY-nLC™ 1200 LC pump (Thermo Fisher Scientific). Peptides were separated on an EasySpray™ ES803 75 μm inner diameter microcapillary column (ThermoFisher Scientific).
Each analysis used an MS3-based TMT method as described previously. The data were acquired using a mass range of m z 340-1350, resolution 120,000, automatic gain control (AGC) target 1×10^6, maximum injection time 100 ms, dynamic exclusion of 120 seconds for the peptide measurements in the Orbitrap Fusion™ Lumos™ mass spectrometer. Data dependent MS2 spectra were acquired in the ion trap with a normalized collision energy (NCE) set at 55%, AGC target set to 1.5×10^5 and a maximum injection time of 150 ms. […]

T1 sequence (P40337 whole entry, species assumed): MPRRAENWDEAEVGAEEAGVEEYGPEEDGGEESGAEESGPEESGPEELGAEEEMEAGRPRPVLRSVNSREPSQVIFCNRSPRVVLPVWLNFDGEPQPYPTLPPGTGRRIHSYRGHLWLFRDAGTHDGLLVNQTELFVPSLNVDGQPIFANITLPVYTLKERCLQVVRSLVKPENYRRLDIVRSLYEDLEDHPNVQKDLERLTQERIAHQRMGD

IC50 (VHL) [µM] | cellular HDAC3 protein levels, change in relative protein abundance (heat map FIG. 2) (HDAC3; 1 μM, 5 hours, vs DMSO) | SMILES | HDAC3 protein levels, relative protein abundance compared to DMSO control (HDAC3)
11.7 | down-regulation | Cc1ncsc1-c1ccc([C@H](C)NC(=O)[C@@H]2C[C@@H](O)CN2C(=O)[C@@H](NC(=O)CCOCCOCCN(CCc2c[nH]c3ccccc23)Cc2ccc(/C=C/C(=O)NO)cc2)C(C)(C)C)cc1 [Compound 2, (2S,4R)-1-((S)-14-(tert-butyl)-3-(4-((E)-3-(hydroxyamino)-3-oxoprop-1-en-1-yl)benzyl)-1-(1H-indol-3-yl)-12-oxo-6,9-dioxa-3,13-diazapentadecan-15-oyl)-4-hydroxy-N—((S)-1-(4-(4-methylthiazol-5-yl)phenyl)ethyl)pyrrolidine-2-carboxamide] | significant and selective reduction
9.4 |  | Cc1ncsc1-c1ccc(CNC(=O)[C@@H]2C[C@@H](O)CN2C(=O)[C@@H](NC(=O)C2(F)CC2)C(C)(C)C)c(OCCCCCN(CCc2c[nH]c3ccccc23)Cc2ccc(/C=C/C(=O)NO)cc2)c1 [Compound 7, (2S,4R)—N-(2-((5-((2-(1H-indol-3-yl)ethyl)(4-((E)-3-(hydroxyamino)-3-oxoprop-1-en-1-yl)benzyl)amino)pentyl)oxy)-4-(4-methylthiazol-5-yl)benzyl)-1-((S)-2-(1-fluorocyclopropane-1-carboxamido)-3,3-dimethylbutanoyl)-4-hydroxypyrrolidine-2-carboxamide] | promote degradation; also recorded: significant and selective reduction
